Consider eleven molecules from patent EP0602242A1, “BENZISOXAZOLE COMPOUND AND USE THEREOF” (priority 1991, dated 1993).

Molecules are shown by their SMILES. Counter-ions that a name gives are not always drawn. Like-named read-outs stand apart in the source and are kept apart here.

In series [1] the target is T1, acetylcholinesterase (AChE) (Rattus norvegicus, UniProt P37136).
T1 construct: An enzyme solution was a homogenized solution of forebrain from male Wistar rat; from tissue; host or cells: forebrain of male Wistar rat (homogenate)
T1 sequence (P37136 32-614): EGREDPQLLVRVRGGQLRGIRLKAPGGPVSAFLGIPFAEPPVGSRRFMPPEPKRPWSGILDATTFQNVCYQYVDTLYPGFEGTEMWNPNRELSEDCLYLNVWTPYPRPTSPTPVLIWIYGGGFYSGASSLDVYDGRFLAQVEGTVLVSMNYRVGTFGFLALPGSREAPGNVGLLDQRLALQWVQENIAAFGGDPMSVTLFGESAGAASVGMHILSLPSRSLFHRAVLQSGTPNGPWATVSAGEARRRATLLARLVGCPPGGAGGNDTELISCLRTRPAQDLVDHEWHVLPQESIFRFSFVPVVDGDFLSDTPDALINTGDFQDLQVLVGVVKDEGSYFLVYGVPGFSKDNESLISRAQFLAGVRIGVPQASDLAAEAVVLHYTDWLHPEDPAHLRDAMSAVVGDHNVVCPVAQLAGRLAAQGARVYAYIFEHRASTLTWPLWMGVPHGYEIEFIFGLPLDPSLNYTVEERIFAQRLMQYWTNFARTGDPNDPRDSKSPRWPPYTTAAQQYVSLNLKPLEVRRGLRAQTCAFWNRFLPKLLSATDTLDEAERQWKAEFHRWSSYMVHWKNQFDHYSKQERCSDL
The series is described as follows: biochemical. Further details: species or system male Wistar rat. The method, then: An enzyme solution was a homogenized solution of forebrain from male Wistar rat in 0.1M phosphate buffer (pH 8.0). Acetylthiocholine was used as a substrate for acetylcholinesterase (AChE) and the density of thionitrobenzoate (yellow) produced by the following reaction was measured with a spectrophotometer (OD₄₁₂). [drawing 27] Thiocholine + dithiobisnitrobenzoate → thionitrobenzoate Test compounds were dissolved in dimethylsulfoxide and diluted with 0.1M phosphate buffer (pH 8.0).

In series [2] the target is acetylcholinesterase (AChE) derived from human (Homo sapiens, UniProt P22303). The series is described as follows: biochemical.
Sequence of acetylcholinesterase (AChE) derived from human (P22303 32-614): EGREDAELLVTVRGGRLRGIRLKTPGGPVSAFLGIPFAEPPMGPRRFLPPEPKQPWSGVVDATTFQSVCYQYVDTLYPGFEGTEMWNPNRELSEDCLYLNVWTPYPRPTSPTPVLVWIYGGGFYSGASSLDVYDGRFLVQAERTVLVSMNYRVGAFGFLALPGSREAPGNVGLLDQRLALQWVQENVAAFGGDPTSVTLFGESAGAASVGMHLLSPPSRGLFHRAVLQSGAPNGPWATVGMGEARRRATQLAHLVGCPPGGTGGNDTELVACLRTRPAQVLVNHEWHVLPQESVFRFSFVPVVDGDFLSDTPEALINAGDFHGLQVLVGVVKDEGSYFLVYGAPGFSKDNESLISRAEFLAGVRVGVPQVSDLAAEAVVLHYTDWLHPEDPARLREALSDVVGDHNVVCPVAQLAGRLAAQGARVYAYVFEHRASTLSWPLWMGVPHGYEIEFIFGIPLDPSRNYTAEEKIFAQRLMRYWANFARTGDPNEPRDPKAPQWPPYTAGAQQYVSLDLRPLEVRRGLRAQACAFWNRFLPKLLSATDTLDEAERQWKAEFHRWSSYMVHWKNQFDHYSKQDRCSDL
The target in series [3] is butyrylcholinesterase (BChE) derived from human (Homo sapiens, UniProt P06276). The series can be described thus: biochemical.
Sequence of butyrylcholinesterase (BChE) derived from human (P06276 29-602): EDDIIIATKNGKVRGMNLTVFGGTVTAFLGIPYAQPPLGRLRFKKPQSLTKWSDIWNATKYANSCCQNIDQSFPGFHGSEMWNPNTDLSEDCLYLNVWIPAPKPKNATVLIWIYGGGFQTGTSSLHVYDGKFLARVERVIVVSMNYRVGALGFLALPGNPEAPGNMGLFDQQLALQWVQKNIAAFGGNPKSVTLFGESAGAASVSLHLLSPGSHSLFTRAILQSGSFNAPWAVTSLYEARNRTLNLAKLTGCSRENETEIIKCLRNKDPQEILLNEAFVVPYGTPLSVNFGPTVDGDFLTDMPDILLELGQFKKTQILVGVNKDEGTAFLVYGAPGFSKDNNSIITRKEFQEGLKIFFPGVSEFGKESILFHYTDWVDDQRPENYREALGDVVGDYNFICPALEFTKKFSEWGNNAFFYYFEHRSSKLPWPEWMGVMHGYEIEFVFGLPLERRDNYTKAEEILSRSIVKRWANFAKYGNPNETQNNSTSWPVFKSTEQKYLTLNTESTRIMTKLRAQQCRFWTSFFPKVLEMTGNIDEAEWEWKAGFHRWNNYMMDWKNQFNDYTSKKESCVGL
For another series, the target named is sigma receptor. The series can be described thus: Sigma receptor binding test (3H-DTG, rat cerebral cortex membrane fractions). Further details: species or system Male Wistar rats. Conditions: rat cerebral cortex membranes, 3H-DTG 2.5 nM, 25°C 60 minutes, Ki = IC50/[1 + (L/Kd)], Kd 26.3 nM; read-out: Sigma receptor binding assay ³H-DTG (Ki). How it is done:
Male Wistar rats weighing 250-300 g were decapitated and the brains were removed. Cerebral cortex was dissected on ice, and the brain tissues were homogenized in 20 volumes of Tris-HCl buffer (pH 8.0, 25°C) containing 320 mM sucrose. The homogenate was centrifuged at 1000 × g for 10 minutes. The obtained supernatant was centrifuged at 31,000 × g for 15 minutes and the pellets obtained were suspended in the same Tris-HCl buffer, followed by incubation at 37°C for 10 minutes. Centrifugation was repeated twice and the final pellets were suspended in 50 mM Tris-HCl buffer (pH 8.0, 25°C) and used as membrane fractions.
A binding inhibitory test was conducted by adding [³H]-1,3-di-o-tolylguanidine (³H-DTG, 39.4 Ci/mmol, New England Nuclear, final concentration 2.5 nM) and respective test compounds (5 different concentrations) to the membrane fractions (0.9 ml, 0.5-0.8 mg) and then the above-mentioned buffer to the final volume of 1 ml. The mixtures were incubated at 25°C for 60 minutes. The reaction mixture was suction-filtered through Whatman GF/B filters which had been treated previously with 0.1% polyethyleneimine and washed three times with 3 ml of 10 mM Tris-HCl buffer (pH 7.7, 25°C). Then, the β rays of the bound ³H-DTG on the filter were measured by a liquid scintillation counter.
IC₅₀ values were determined graphically and Ki values were calculated by the numerical equation Ki = IC₅₀/[1 + (L/Kd)] [formula] wherein L is a concentration of radioligand and Kd (26.3 nM) is a dissociation constant between tritiated ligand and the receptor.

Series [4] in a line: Acute toxicity after oral administration. As to conditions: rat, in vivo; oral administration to rats; read-out: acute toxicity values (LD₅₀). The method, then: The acute toxicity values (LD₅₀) of the compounds of the present invention 6 and 41 after oral administration to rats were not less than 50 mg/kg.
Where [5] appears, read: homogenized forebrain of male Wistar rat, substrate acetylthiocholine, 0.1M phosphate buffer pH 8.0, read-out: Acetylcholinesterase inhibition IC₅₀.
Setting [6] is: AChE derived from human, substrate acetylthiocholine, read-out: IC₅₀ AChE.
Where [7] appears, read: IC50 for human BChE divided by IC50 for human AChE.
Where [8] appears, read: BChE derived from human, substrate butyrylthiocholine, read-out: IC₅₀ BChE.

`O=C(Nc1ccc2c(=O)n(CCC3CCN(Cc4ccccc4)CC3)oc2c1)c1ccccc1` [Example 252, 6-Benzoylamino-2-(2-(1-benzyl-4-piperidyl)ethyl)-1,2-benzisoxazol-3(2H)-one]: the IC50 in series [1] (setting [5]) was determined as 0.73 nM.

For `COc1ccc2c(CCC3CCN(Cc4ccccc4)CC3)noc2c1OC` [Example 19, 3-(2-(1-benzyl-4-piperidyl)ethyl)-6,7-dimethoxy-1,2-benzisoxazole], the IC50 in series [1] (setting [5]) is 0.38 nM; in series [2] (setting [6]), 1.8 nM; in series [3] (setting [8]), 7500 nM. Further, in series [2] (setting [7]), the “Selectivity IC₅₀ (BChE)/IC₅₀ (AChE)” value is listed as 4,200.

`CN(C)C(=S)Oc1ccc2c(CCC3CCN(Cc4ccccc4)CC3)noc2c1` [Example 11]: the IC50 was 0.5 nM in series [2] and > 10000 nM in series [3]. The “Selectivity IC₅₀ (BChE)/IC₅₀ (AChE)” value in series [2] (setting [7]) is on record as >20,000.

In series [1], `CNC(=O)Oc1cccc(CN2CCC(CCc3noc4c(OC)c(OC)ccc34)CC2)c1` [Example 23, 3-(2-(1-(3-(N-methylcarbamoyloxy)benzyl)-4-piperidyl)ethyl)-6,7-dimethoxy-1,2-benzisoxazole] displayed an IC50 of 0.34 nM.

The term Ki denotes the equilibrium dissociation constant of an inhibitor or competing ligand from its target. In the case of `Cc1ccc2onc(OCCC3CCN(CC4CCCCC4)CC3)c2c1` [Example 160, 3-(2-(1-Cyclohexylmethyl-4-piperidyl)ethyloxy)-5-methyl-1,2-benzisoxazole fumarate], the inhibitory constant (Ki) at sigma receptor was determined as 0.23 nM.

Take `Cc1ccc2on(CCC3CCN(CC4CCCCC4)CC3)c(=O)c2c1` [Example 231, 2-(2-(1-Cyclohexylmethyl-4-piperidyl)ethyl)-5-methyl-1,2-benzisoxazol-3(2H)-one fumarate]: at sigma receptor, the Ki stood at 0.42 nM.

Take `Cc1ccc2c(OCCC3CCN(CC4CCCCC4)CC3)noc2c1` [Example 164, 3-(2-(1-Cyclohexylmethyl-4-piperidyl)ethyloxy)-6-methyl-1,2-benzisoxazole fumarate]: the Ki at sigma receptor was determined as 0.37 nM.

Take `CC(=O)Nc1ccc2c(CCC3CCN(Cc4ccccc4)CC3)noc2c1` [Example 6, 6-acetylamino-3-(2-(1-benzyl-4-piperidyl)ethyl)-1,2-benzisoxazole]: the LD50 in series [4] was ≥ 50 mg/kg. The “Selectivity IC₅₀ (BChE)/IC₅₀ (AChE)” value in series [2] was 4,500. Also, the IC50 in series [2] (setting [6]) was 2.1 nM; in series [3] it was 9500 nM.

With `O=C(Nc1ccc2c(=O)n(CCCC3CCN(Cc4ccccc4)CC3)oc2c1)c1ccccc1` [Example 198, 6-benzoylamino-2-(3-(1-benzyl-4-piperidyl)propyl)-1,2-benzisoxazol-3(2H)-one], the IC50 was determined as 0.94 nM in series [2] (setting [6]) and 3600 nM in series [3] (setting [8]). Besides, in series [2] (setting [7]), the “Selectivity IC₅₀ (BChE)/IC₅₀ (AChE)” value is recorded as 3,800.

Regarding `CC(=O)N(C)c1ccc2c(CCC3CCN(Cc4ccccc4)CC3)noc2c1` [Example 41, 3-(2-(1-Benzyl-4-piperidyl)ethyl)-6-(N-methylacetamino)-1,2-benzisoxazole], in series [4], the LD50 is ≥ 50 mg/kg. Moreover, the results for the IC50 in series [2] (setting [6]) and in series [3] (setting [8]) were 4.6 nM and 17000 nM, respectively. The “Selectivity IC₅₀ (BChE)/IC₅₀ (AChE)” value in series [2] (setting [7]) is listed as 3,700.

For the molecule `Cc1ccc2c(=O)n(CCC3CCN(CC4CCCCC4)CC3)oc2c1` [Example 227, 2-(2-(1-Cyclohexylmethyl-4-piperidyl)ethyl)-6-methyl-1,2-benzisoxazol-3(2H)-one fumarate], at sigma receptor, the Ki amounted to 0.55 nM.
